Results: article PMC7932080, “In vitro study of Hesperetin and Hesperidin as inhibitors of zika and chikungunya virus proteases” (PLoS ONE, 2021)

How the values were obtained:
CHIKV nsP2^pro = CHIKV nsP2^pro (Chikungunya virus, UniProt Q8JUX6); assay: Intrinsic Trp fluorescence titration (KD); settings: Trp fluorescence quenching, ± STD
[1] = cited from earlier work
CHIKV = settings: cited from earlier work

Sequence of CHIKV nsP2^pro (Q8JUX6 1001-1333): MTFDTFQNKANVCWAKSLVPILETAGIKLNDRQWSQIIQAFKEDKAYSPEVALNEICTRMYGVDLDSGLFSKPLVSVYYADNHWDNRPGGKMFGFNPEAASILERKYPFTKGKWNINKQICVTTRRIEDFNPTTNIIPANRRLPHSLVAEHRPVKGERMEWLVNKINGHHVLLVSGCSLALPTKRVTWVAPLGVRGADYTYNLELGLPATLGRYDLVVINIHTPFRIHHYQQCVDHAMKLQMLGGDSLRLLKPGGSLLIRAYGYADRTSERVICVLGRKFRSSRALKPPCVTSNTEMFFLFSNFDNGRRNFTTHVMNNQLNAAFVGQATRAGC

In the case of `COc1ccc(C2CC(=O)c3c(O)cc(O)cc3O2)cc1O` (stereo not drawn) [HST, 3’,5,7-trihydroxy-4’-methoxyflavanone], the Kd (CHIKV nsP2^pro) is given as 31.6 ± 2.5 µM, the “Potential maximal tolerated dose” value [1] is given as “Citrus flavonoids are extremely safe and without side effects also up to high concentrations of 100 mg/kg to 500 mg/kg” and the “Intracellular replication of CHIKV” value (CHIKV) is given as “inhibit”.
